# From PubChem BioAssay AID743304 (Broad Institute, 2014)
# “And” between values parts separate entries of the source, which are not always exact repeats. Equal entries are not always repeated. The source made the active and inactive calls.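 How the source made its calls: active means signal drop whose fitted half-maximal dose is no more than twice the top valid dose; inconclusive means flat curve with 30 to 70% inhibition, or unreliable fit; inactive means the rest, including rising signal.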
# What was measured:
# [1] = system: C. neoformans growth with sorbitol, alamar blue, 24 h; assay: C. neoformans growth inhibition with sorbitol, dose response, mechanism study for C. neoformans lysis project, alamar blue, dry powder, set 3 (AID 743304)
# [2] = as above; conditions: C. neoformans growth with sorbitol, alamar blue, 24 h; at 35 µM (top of the series)
SMILES,AC50 [1],"activity change, negative = inhibition [2]"
COc1ccc(OCCn2c(=S)[nH]c3ccccc32)cc1,26.2 µM,–
Cc1cccc2[nH]c(=S)n(CCOc3ccccc3)c12,14.2 µM,–
Cc1ccc(C)c(OCCn2c(=S)[nH]c3ccccc32)c1,–,-7.02% (inactive)
Cc1ccc(C(C)C)c(OCCn2c(=S)[nH]c3c(Cl)cccc32)c1,–,-14.9% (inactive)
Cc1ccc(OCCn2c(SCCO)nc3ccccc32)c(C(C)C)c1,8.48 µM,–
Cc1cccc(OCCn2c(=S)[nH]c3ccc(C(F)(F)F)cc32)c1,–,24.8% (inactive)
S=c1[nH]c2cc(Cl)ccc2n1CCOc1ccccc1,–,17.6% (inactive)
CC(C)(C)c1ccc(OCCn2c(=S)[nH]c3ccccc32)cc1,4.94 µM,–
Fc1ccc2[nH]c(=S)n(CCOc3ccccc3)c2c1,23.5 µM,–
CC(C)(C)c1ccccc1OCCn1c(=S)[nH]c2ccccc21,8.32 µM,–
S=c1[nH]c2ccccc2n1CCOc1ccc(Cl)cc1,6.3 µM,–
Cc1ccc(C(C)C)c(OCCn2c(=S)[nH]c3cccc(Cl)c32)c1,7.25 µM,–
Fc1cccc2c1[nH]c(=S)n2CCOc1ccccc1,21.4 µM and 22.2 µM and 23.1 µM,–
Cc1ccc(C(C)C)c(OCCn2c(=S)[nH]c3c(C)cccc32)c1,–,34.1% (inactive)
Cc1ccc(C(C)C)c(OCCn2c(=S)[nH]c3ccccc32)c1,6.96 µM and 7.67 µM,–
Fc1ccccc1OCCn1c(=S)[nH]c2ccccc21,21.9 µM,–
Cc1ccc(C(C)C)c(OCCn2c(=S)[nH]c3cccc(C)c32)c1,16.4 µM,–
Cc1ccc(C(C)C)c(OCCn2c(=S)[nH]c3ccc(F)cc32)c1,–,14.7% (inactive)
c1ccc(OCCn2cnc3ccccc32)cc1,–,39.4% (inactive)
CC(C)c1ccc(OCCn2c(=S)[nH]c3ccccc32)cc1,4.21 µM,–
CC(C)(C)c1ccc(OCCn2cnc3ccccc32)cc1,8.05 µM,–
Cc1cccc(OCCn2c(=S)[nH]c3ccccc32)c1C,6.75 µM,–
Cc1ccc(C(C)C)c(OCCn2c(CO)nc3ccccc32)c1,33.6 µM,–
Cc1ccc(OCCn2c(=S)[nH]c3ccccc32)c(C)c1,–,7.99% (inactive)
Cc1ccc2c(c1)[nH]c(=S)n2CCOc1ccccc1,11.6 µM and 12.9 µM,–
COc1ccccc1OCCn1c(=S)[nH]c2ccccc21,–,36.1% (inactive)

SMILES,AC50 [1],"activity change, negative = inhibition [2]"
Fc1cccc(OCCn2c(=S)[nH]c3ccccc32)c1,20.5 µM,–
Cc1ccc(OCCn2c(=S)[nH]c3ccccc32)c(C(C)C)c1,10.2 µM and 6.37 µM,–
Cc1ccc(OCCn2c(C)nc3ccccc32)cc1,6.48 µM,–
CC(C)c1ccccc1OCCn1c(=S)[nH]c2ccccc21,18.4 µM,–
Cc1ccc(C(C)C)c(OCCn2c(=S)[nH]c3cccc(F)c32)c1,10.9 µM,–
Fc1ccc(OCCn2c(=S)[nH]c3ccccc32)cc1,27.3 µM,–
Cc1cccc(OCCn2c(=S)[nH]c3cc(F)ccc32)c1,11.2 µM and 10.4 µM,–
Cc1cccc(OCCn2c(=S)[nH]c3cc(C(F)(F)F)ccc32)c1,–,8.97% (inactive)
Cc1ccc(C(C)C)c(OCCn2c(=S)[nH]c3c(F)cccc32)c1,–,48.2% (inactive)
Cc1cccc(OCCn2c(=S)[nH]c3ccccc32)c1,22.4 µM,–
CCOc1ccc(OCCn2c(=S)[nH]c3ccccc32)cc1,11.1 µM,–
Fc1ccc2c(c1)[nH]c(=S)n2CCOc1ccccc1,25 µM and 23.1 µM,–
Cc1ccc(OCCn2cnc3ccccc32)c(C(C)C)c1,24 µM,–
Cc1ccc(OCCn2cnc3ccccc32)cc1,5.96 µM,–
Cc1cccc(OCCn2c(=S)[nH]c3c(F)cccc32)c1,16.4 µM and 16.6 µM,–
S=c1[nH]c2ccccc2n1CCOc1ccccc1,24.5 µM,–
Cc1ccc(C(C)C)c(OCCn2c(=S)[nH]c3ccc(Cl)cc32)c1,–,36.9% (inactive)
CC(C)c1ccccc1NCCn1c(=S)[nH]c2ccccc21,–,1.72% (inactive)
S=c1[nH]c2ccccc2n1CCOc1ccccc1Cl,24 µM,–
COc1cccc(OCCn2c(=S)[nH]c3ccccc32)c1,26.1 µM,–
Cc1ccc(C(C)C)c(OCCn2c(=S)[nH]c3cc(F)ccc32)c1,–,9.32% (inactive)
O=c1[nH]c2ccccc2n1CCOc1ccccc1,24.1 µM,–
Cc1ccc(OCCn2c(=S)[nH]c3ccccc32)cc1,6.11 µM,–
S=c1[nH]c2cccc(Cl)c2n1CCOc1ccccc1,5.74 µM and 5.16 µM,–
Cc1ccccc1OCCn1c(=S)[nH]c2ccccc21,31.2 µM,–
